Experimental data taken from US10272088B2, “FAS inhibitors and methods associated therewith” (Wake Forest University Health Sciences, priority 2014, dated 2019).
“Also recorded” adds a separate entry of the source.

Columns and labels:
[1] = tested on: PC3 prostate, RKO colorectal, and MDA-MB-231 breast cancer cells; assay: In vitro cytotoxicity, WST-8 assay; details: Nano-Orl (PBA ligand) dosed equivalent to 25 m Orlistat, 24 h + 24 h
Description: Media alone or containing experimental or control agents was refreshed after 24 h and allowed to incubate for 24 additional hours. Cytotoxicity was then evaluated using the WST-8 assay (Dojindo, Rockville, Md.).

PC3 cells = assay: Seahorse Mito Stress test, oxygen consumption rate; details: Orlistat 50 μM, 12 hours
Description: PC3 cells were seeded into 24-well XF analysis microplates. The cells were the treated with vehicle (•) or Orlistat (50 μM. ? ) for 12 hours before analysis, according to Seahorse protocols. Oxygen consumption rate (OCR), a measure of mitochondrial capacity, was determined using a Seahorse Mito Stress test on a Seahorse XF24 extracellular flux analyzer.

[2] = cited from earlier work
cells = assay: Cytotoxicity after pre-incubation in PBS (entrapment/hydrolytic stability); type: cell-based; details: pre-incubated in PBS prior to incubating with cells
[3] = Solubility/aggregation of ICG in PBS
FASN = FASN (Homo sapiens, UniProt P49327); assay: 14C-acetate incorporation study (FASN inhibition); details: PC3 cells
Chain of FASN (P49327 whole entry): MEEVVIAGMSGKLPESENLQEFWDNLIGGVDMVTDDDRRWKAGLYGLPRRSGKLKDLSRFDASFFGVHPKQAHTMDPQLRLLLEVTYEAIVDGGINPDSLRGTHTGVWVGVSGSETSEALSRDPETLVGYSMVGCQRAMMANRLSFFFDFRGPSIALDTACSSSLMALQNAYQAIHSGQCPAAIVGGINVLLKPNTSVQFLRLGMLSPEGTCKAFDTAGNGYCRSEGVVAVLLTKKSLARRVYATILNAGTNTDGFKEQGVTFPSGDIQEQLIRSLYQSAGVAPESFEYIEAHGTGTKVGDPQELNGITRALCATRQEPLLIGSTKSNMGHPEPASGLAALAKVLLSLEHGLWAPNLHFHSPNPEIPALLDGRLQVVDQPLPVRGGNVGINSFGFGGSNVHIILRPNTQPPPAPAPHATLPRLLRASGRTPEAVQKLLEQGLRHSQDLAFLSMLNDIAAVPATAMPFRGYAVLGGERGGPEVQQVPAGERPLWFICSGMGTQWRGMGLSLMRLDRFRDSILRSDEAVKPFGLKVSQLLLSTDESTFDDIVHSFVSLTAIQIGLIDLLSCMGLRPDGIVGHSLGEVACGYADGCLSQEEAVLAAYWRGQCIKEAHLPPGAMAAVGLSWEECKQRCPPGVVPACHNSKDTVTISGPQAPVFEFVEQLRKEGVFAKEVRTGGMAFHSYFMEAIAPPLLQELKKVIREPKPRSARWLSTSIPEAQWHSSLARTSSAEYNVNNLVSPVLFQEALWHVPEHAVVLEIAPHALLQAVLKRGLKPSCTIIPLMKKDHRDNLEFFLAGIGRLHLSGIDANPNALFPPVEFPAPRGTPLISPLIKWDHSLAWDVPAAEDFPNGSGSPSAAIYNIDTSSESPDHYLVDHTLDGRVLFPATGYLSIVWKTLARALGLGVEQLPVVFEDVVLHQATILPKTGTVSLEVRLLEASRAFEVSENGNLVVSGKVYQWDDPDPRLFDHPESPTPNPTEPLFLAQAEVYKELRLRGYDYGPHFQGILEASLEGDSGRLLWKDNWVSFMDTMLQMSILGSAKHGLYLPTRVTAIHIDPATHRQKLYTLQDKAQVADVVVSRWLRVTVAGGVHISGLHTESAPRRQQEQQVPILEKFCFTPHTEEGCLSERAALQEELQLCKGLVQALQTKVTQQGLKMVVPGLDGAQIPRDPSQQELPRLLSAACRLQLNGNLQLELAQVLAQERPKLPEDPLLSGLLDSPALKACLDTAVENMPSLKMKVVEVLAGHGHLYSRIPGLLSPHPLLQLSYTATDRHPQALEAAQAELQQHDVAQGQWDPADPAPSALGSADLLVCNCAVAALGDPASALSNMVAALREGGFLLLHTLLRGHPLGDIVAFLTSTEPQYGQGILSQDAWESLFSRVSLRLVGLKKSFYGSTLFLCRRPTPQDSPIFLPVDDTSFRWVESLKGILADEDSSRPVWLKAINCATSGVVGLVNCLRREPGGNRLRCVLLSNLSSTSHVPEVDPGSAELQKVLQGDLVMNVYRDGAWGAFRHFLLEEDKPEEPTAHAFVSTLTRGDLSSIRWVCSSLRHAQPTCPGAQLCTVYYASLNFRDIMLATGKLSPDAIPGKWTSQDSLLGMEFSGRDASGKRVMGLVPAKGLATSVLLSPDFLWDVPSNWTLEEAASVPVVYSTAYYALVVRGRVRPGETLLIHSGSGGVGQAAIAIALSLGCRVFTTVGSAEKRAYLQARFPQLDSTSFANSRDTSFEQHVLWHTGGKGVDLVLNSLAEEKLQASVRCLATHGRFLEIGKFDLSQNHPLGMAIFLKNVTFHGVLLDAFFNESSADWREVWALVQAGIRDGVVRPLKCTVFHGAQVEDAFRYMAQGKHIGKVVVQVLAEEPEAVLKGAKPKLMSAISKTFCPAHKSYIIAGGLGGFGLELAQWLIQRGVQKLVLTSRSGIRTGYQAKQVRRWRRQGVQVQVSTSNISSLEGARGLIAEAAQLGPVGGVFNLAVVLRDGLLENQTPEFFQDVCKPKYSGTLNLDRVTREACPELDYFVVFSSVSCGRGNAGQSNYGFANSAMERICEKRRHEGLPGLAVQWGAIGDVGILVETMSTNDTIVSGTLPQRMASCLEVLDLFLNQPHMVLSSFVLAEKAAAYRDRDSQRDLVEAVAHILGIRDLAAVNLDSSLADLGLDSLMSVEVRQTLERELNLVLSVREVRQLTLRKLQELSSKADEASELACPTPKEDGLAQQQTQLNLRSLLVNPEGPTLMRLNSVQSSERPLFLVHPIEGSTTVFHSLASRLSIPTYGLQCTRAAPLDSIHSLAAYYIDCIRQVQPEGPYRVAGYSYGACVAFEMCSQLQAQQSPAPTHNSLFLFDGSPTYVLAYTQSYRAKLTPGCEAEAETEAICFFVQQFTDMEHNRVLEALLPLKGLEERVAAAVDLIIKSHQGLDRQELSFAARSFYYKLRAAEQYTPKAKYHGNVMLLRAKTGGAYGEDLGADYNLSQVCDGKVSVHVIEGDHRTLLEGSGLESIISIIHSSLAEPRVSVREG
Description: Next, 1 μCi of ^14C-acetate will be added to the cells and be incubated for an additional 2 h. After washing cells with PBS/EDTA, the fatty acids will be extracted with chloroform/methanol (1:1) and quantified by scintillation counting using standard protocols.

CCCCCCCCCCC[C@@H](C[C@@H]1OC(=O)[C@H]1CCCCCC)OC(=O)[C@H](CC(C)C)NC=O [Orlistat]
viability relative to the NP vehicle media control [1]: consistent with free Orlistat
mitochondrial capacity (oxygen consumption rate) (PC3 cells): decreases mitochondrial capacity; also recorded: negatively impacts mitochondrial capacity
tumor growth in vivo ([2]; compared to a sham control): inhibits tumor growth in vivo
bioavailability ([2]; in vivo): poor bioavailability
cytotoxicity after pre-incubation in PBS (cells): rendered ineffective; also recorded: dramatically reduces its efficacy

CC1(C)C(/C=C/C=C/C=C/C=C2\N(CCCCS(=O)(=O)O)c3ccc4ccccc4c3C2(C)C)=[N+](CCCCS(=O)(=O)[O-])c2ccc3ccccc3c21 [ICG, indocyanine green]
solubility in PBS [3]: not soluble in PBS; also recorded: rapidly aggregates in PBS

CCCCCCCCCCCCCCOc1ccc(C(=O)O)o1 [TOFA]
14C-acetate incorporation into lipids (FASN inhibition) (FASN): inhibited FASN mediated incorporation of acetate in lipids
